PubChem BioAssay (NCI)
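Here, GI50 denotes the concentration required for 50% inhibition of growth. TGI: total growth inhibition.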

Legend:
Assay in all cases: inhibition of tumour cell growth, NCI panel, 384-well format
[1] = tested on: BT-549 breast
[2] = tested on: SK-MEL-5 melanoma
[3] = tested on: SW-620 colon
[4] = tested on: NCI-H23 lung
[5] = tested on: SK-MEL-28 melanoma
[6] = tested on: SNB-19 CNS
[7] = tested on: SF-539 CNS
[8] = tested on: UACC-62 melanoma
[9] = tested on: K-562 leukemia
[10] = tested on: SR leukemia
[11] = tested on: A549 NSCLC
[12] = tested on: IGROV1 ovarian
[13] = tested on: HL-60(TB) leukemia
[14] = tested on: T-47D breast
[15] = tested on: SK-MEL-2 melanoma
[16] = tested on: COLO 205 colon
[17] = tested on: MALME-3M melanoma
[18] = tested on: MDA-MB-435 melanoma
[19] = tested on: PC-3 prostate
[20] = tested on: SF-295 CNS
[21] = tested on: RXF 393 renal
[22] = tested on: HCT-116 colon
[23] = tested on: NCI-H522 lung
[24] = tested on: UO-31 renal
[25] = tested on: DU-145 prostate
[26] = tested on: NCI-H460 NSCLC
[27] = tested on: A498 renal
[28] = tested on: MOLT-4 leukemia
[29] = tested on: M14 melanoma
[30] = tested on: CCRF-CEM leukemia
[31] = tested on: SF-268 CNS
[32] = tested on: HCT-15 colon
[33] = tested on: HOP-92 NSCLC
[34] = tested on: ACHN renal
[35] = tested on: SK-OV-3 ovarian
[36] = tested on: TK-10 renal
[37] = tested on: UACC-257 melanoma
[38] = tested on: KM12 colon
[39] = tested on: LOX IMVI melanoma
[40] = tested on: MDA-MB-468 breast
[41] = tested on: HT29 colon
[42] = tested on: NCI-H226 lung
[43] = tested on: OVCAR-8 ovarian
[44] = tested on: NCI/ADR-RES ovarian
[45] = tested on: CAKI-1 renal
[46] = tested on: NCI-H322M lung
[47] = tested on: OVCAR-4 ovarian
[48] = tested on: HCC-2998 colon
[49] = tested on: U251 glioblastoma
[50] = tested on: MDA-MB-231 breast
[51] = tested on: OVCAR-5 ovarian
[52] = tested on: SN12C renal
[53] = tested on: OVCAR-3 ovarian
[54] = tested on: HOP-62 NSCLC
[55] = tested on: 786-0 renal
[56] = tested on: MCF7 breast
[57] = tested on: RPMI-8226 leukemia

Compound: COCCNCc1ccc(-c2cc3nccc(Oc4ccc(NC(=S)NC(=O)Cc5ccc(F)cc5)cc4F)c3s2)nc1
- GI50 [1]: 1600 nM
- TGI [1]: 2950 nM
- GI50 [2]: 1260 nM
- TGI [2]: 2520 nM
- GI50 [3]: 1550 nM
- TGI [3]: 2920 nM
- GI50 [4]: 486 nM
- TGI [4]: 2200 nM
- GI50 [5]: 1500 nM
- TGI [5]: 2830 nM
- GI50 [6]: 1780 nM
- TGI [6]: 3190 nM
- GI50 [7]: 969 nM
- TGI [7]: 2150 nM
- GI50 [8]: 1520 nM
- TGI [8]: 2860 nM
- GI50 [9]: 177 nM
- TGI [9]: 343 nM
- GI50 [10]: 187 nM
- TGI [10]: 330 nM
- GI50 [11]: 1680 nM
- TGI [11]: 3070 nM
- GI50 [12]: 1640 nM
- TGI [12]: 3540 nM
- GI50 [13]: 621 nM
- TGI [13]: 1750 nM
- GI50 [14]: 1480 nM
- TGI [14]: 2810 nM
- GI50 [15]: 1960 nM
- TGI [15]: 3380 nM
- GI50 [16]: 1610 nM
- TGI [16]: 2980 nM
- GI50 [17]: 1540 nM
- TGI [17]: 2890 nM
- GI50 [18]: 1860 nM
- TGI [18]: 3270 nM
- GI50 [19]: 1810 nM
- TGI [19]: 3210 nM
- GI50 [20]: 875 nM
- TGI [20]: 2110 nM
- GI50 [21]: 1590 nM
- TGI [21]: 2940 nM
- GI50 [22]: 1280 nM
- TGI [22]: 2560 nM
- GI50 [23]: 1670 nM
- TGI [23]: 3030 nM
- GI50 [24]: 1600 nM
- TGI [24]: 2950 nM
- GI50 [25]: 1860 nM
- TGI [25]: 3290 nM
- GI50 [26]: 1420 nM
- TGI [26]: 2750 nM
- GI50 [27]: 1560 nM
- TGI [27]: 2900 nM
- GI50 [28]: 582 nM
- TGI [28]: 1780 nM
- GI50 [29]: 1580 nM
- TGI [29]: 2940 nM
- GI50 [30]: 868 nM
- TGI [30]: 2070 nM
- GI50 [31]: 1570 nM
- TGI [31]: 2920 nM
- GI50 [32]: 1710 nM
- TGI [32]: 3110 nM
- GI50 [33]: 1260 nM
- TGI [33]: 2520 nM
- GI50 [34]: 1720 nM
- TGI [34]: 3110 nM
- GI50 [35]: 1550 nM
- TGI [35]: 2890 nM
- GI50 [36]: 1780 nM
- TGI [36]: 3170 nM
- GI50 [37]: 1090 nM
- TGI [37]: 2290 nM
- GI50 [38]: 385 nM
- TGI [38]: 1440 nM
- GI50 [39]: 2020 nM
- TGI [39]: 3460 nM
- GI50 [40]: 1850 nM
- TGI [40]: 3250 nM
- GI50 [41]: 1160 nM
- TGI [41]: 2410 nM
- GI50 [42]: 1950 nM
- TGI [42]: 3620 nM
- GI50 [43]: 1420 nM
- TGI [43]: 2740 nM
- GI50 [44]: 1580 nM
- TGI [44]: 2930 nM
- GI50 [45]: 1520 nM
- TGI [45]: 2860 nM
- GI50 [46]: 1700 nM
- TGI [46]: 3090 nM
- GI50 [47]: 1090 nM
- TGI [47]: 2300 nM
- GI50 [48]: 1850 nM
- TGI [48]: 3260 nM
- GI50 [49]: 1300 nM
- TGI [49]: 2580 nM
- GI50 [50]: 1440 nM
- TGI [50]: 2760 nM
- GI50 [51]: 1940 nM
- TGI [51]: 3380 nM
- GI50 [52]: 1140 nM
- TGI [52]: 2350 nM
- GI50 [53]: 1890 nM
- TGI [53]: 3310 nM
- GI50 [54]: 1930 nM
- TGI [54]: 3350 nM
- GI50 [55]: 1480 nM
- TGI [55]: 2820 nM
- GI50 [56]: 1480 nM
- TGI [56]: 2810 nM
- GI50 [57]: 614 nM
- TGI [57]: 1820 nM
